Data set [1] concerns EBV. Kind of data set: EBV reactivation: qRT-PCR of EBV lytic gene expression after NMDI-1 treatment. It is filed as cell-based. The conditions noted are these: 25 μM NMDI-1, qRT-PCR, relative to Mock. As for the experimental part:
(§1) FIG. 4. Small-molecule NMD inhibitor NMDI-1 is a potent inducer of EBV and KSHV reactivation. (A-C) qRT-PCR analysis of EBV BZLF1, BRLF1, BMRF1, BLLF1b, and/or BcLF1 transcripts in EBV^+ AKBM (A), AGS-EBV (B), or LCL (C) cells treated with 25 μM NMDI-1 for 12 to 120 h, presented as fold expression relative to Mock-treated samples. (D-G) qRT-PCR analysis of Orf26, Orf50, Orf57, or Orf74 transcripts in KSHV^+ iSLK.rKSHV219 (D), HEK293T.rKSHV219 (E), BC3 (F), and BCBL1 (G) cells treated with 25 μM NMDI-1 for 24 to 120 h, presented as fold expression relative to Mock-treated samples. Data are representative of at least two (A, C) or three (B, D, E, F, G) independent experiments and presented as mean±SD of three biological replicates; ns, p>0.05, * p≤0.05, ** p≤0.01, *** p≤0.001.
(§2) Total RNA was extracted from cells using the E.Z.N.A. HP Total RNA Isolation Kit (OMEGA Bio-Tek) according to the manufacturer's instructions. Reverse transcription and qRT—PCR were performed using equal amounts (50-500 ng) of the purified RNA and the SuperScript III Platinum One-Step qRT-PCR kit with ROX (Invitrogen) on a 7500 Fast Real-Time PCR Machine (Applied Biosystems). Premixed master mixes of TaqMan primers and probes for the detection of human transcripts were purchased from Applied Biosystems (18S) or IDT (GAPDH, UPF1, UPF2, UPF3a, UPF3b, SMG1, SMG5, SMG6, SMG7, STAU1, STAU2, GADD45B, PDRG1, RPL32, HPRT1, MAP3K14). […] Abundance of target genes was calculated by normalizing for cellular 18S or GAPDH using the Comparative CT (ΔΔCt) method. […]

Data set [2] has as its system KSHV. Kind of data set: KSHV reactivation: qRT-PCR of KSHV lytic transcripts after NMDI-1 treatment. It is filed as cell-based. The note with it: 25 μM NMDI-1, 24 to 120 h. How it is done:
as §1, §2

The test system of data set [3] is EBV transcripts in AGS-EBV cells. The data set is described as follows: qRT-PCR of EBV transcript abundance in TPA-treated AGS-EBV cells with or without NMDI-1. It is filed as cell-based. The note with it: 5 ng/mL TPA, 25 μM NMDI-1, 24 h. From the text:
FIG. 3. NMD controls the abundance of the polycistronic EBV transactivator transcripts and Rta protein expression. (A) Schematic of the EBV transactivator locus and the three transcripts expressed from this locus. Dashed lines mark spliced introns; CDS, coding sequence; Rp, EBV BRLF1 promoter; Zp, EBV BZLF1 promoter; pA, 3′-polyadenylation site; green bar, location of the Northern blotting probe used in F and I. (B) qRT-PCR analysis of BRLF1 transcripts in HEK293T cells transfected with 0, 20, 40, or 60 nM UPF1-targeting siRNA for 24 h, followed by transfection of a plasmid encoding the complete EBV transactivator locus (left panel, orange) or the BRLF1 coding sequence (CDS) only (right panel, blue), together with pcDNA3-nlsGFP (internal control) for 48 h. Data was normalized to GFP transcript levels to control for differences in transfection efficiency and presented as fold abundance relative to cells without si.UPF1 (−). (C) qRT-PCR analysis of BZLF1 transcripts in HEK293T cells transfected with increasing amounts of si.UPF1 for 24 has in (B), followed by transfection for 48 h with a plasmid encoding the EBV BZLF1 locus (left panel, orange) or the BZLF1 CDS (right panel, blue), together with pcDNA3-nlsGFP (internal control). […] See 10E Fig for quantification of effects. […] See S6F Fig for quantification of effects. […] See S6G Fig for quantification of effects. […]

The test system of data set [4] is BJAB cells. The data set is described as follows: Cytotoxicity assessment, flow cytometry with 7-AAD and FITC-Annexin V. It counts as cell-based. The conditions noted are these: virus-negative BJAB cells, NMDI-1 between 5 and 50 μM, 48 h. As for the experimental part:
(§3) FIG. 11. Cytotoxicity assessment of NMDI-1 treatment. (A, B) Flow cytometry analysis of virus-negative Burkitt lymphoma BJAB (A) or AGS (B) cells treated with 5 to 100 μM NMDI-1 or DMSO (‘0 μM’ NMDI-1) for 48 h and stained with 7-AAD and FITC-Annexin V. Data are presented as mean percentage of live (orange, Annexin V^−/7-AAD^−), apoptotic (blue, […]), and necrotic (red, Annexin V^+/7-AAD^+) cells for three biological replicates. 1 μM staurosporine treatment served as positive control for apoptosis/necrosis induction.
(§4) AGS-EBV and HEK293T.rKSHV219 cells were seeded into 12-well plates and transfected with UPF1-specific or non-targeting control siRNAs for 24 to 120 h as indicated. As a positive control for reactivation, cells were treated with 2.5 mM NaB for 24 h. For microscopy, cells were incubated with Hoechst nucleic acid stain (1:2000, Invitrogen) in PBS for 5 min at RT, after which DAPI, as well as GFP or RFP were imaged using a fluorescence microscope (Omano). For flow cytometry analysis of GFP and RFP expression, cells were fixed in 4% paraformaldehyde in PBS and analyzed on an LSRFortessa (BD Biosciences). […] Data were analyzed using the Flowjo software (BD Biosciences).
(In general: A flow cytometer gives signals particle by particle.)

For data set [5], the system named is AGS cells. The data set is described as above. It is filed as cell-based, human. The note with it: NMDI-1 between 5 and 50 μM, 48 h. As for the experimental part:
as §3, §4

For data set [6] the following is noted: concentrations below those used in this study (25 μM); cited from earlier work.

For `Cc1c2ccnc(Cl)c2c(C)c2c1[nH]c1ncccc12` [NMDI-1], the “EBV lytic gene expression” value in data set [1] (AGS-EBV cells) and in data set [1] (EBV-transformed LCL cells from healthy-donor primary B cells) was “potent induction of lytic gene expression” in each case. Moreover, the “EBV lytic gene expression (BZLF1, BMRF1, BLLF1, BcLF1)” value in data set [1] (EBV+ AKBM cells) was “striking induction of EBV lytic gene expression”. Moreover, the “KSHV lytic transcripts Orf50, Orf26, Orf57 and/or Orf74” value in data set [2] (KSHV+ BC3 PEL cells), in data set [2] (KSHV+ BCBL1 PEL cells), in data set [2] (KSHV+ HEK293T.rKSHV219 cells) and in data set [2] (KSHV+ iSLK.rKSHV219 cells) was “induced potent expression of the KSHV lytic transcripts” throughout. In addition, the “BRLF1 transcript abundance compared to the mock-treated control” value in data set [3] was “significant increase in BRLF1 transcript abundance”. Further, in data set [3], the “levels of other EBV transcripts (BNRF1, BcLF1, BLLF1)” value is “not significantly affected”. Besides, the cell viability entry in data set [4] and in data set [5] was “did not or only minimally affect cell viability” in each case. The “toxicity in in vivo studies” value in data set [6] is on record as “without apparent toxicity”.

Source of the values: patent publication US20240050426A1, “TREATING VIRAL INFECTION WITH NMD INHIBITORS” (The Cleveland Clinic Foundation, priority 2021, published 2024).
